The values that follow come from US11865129B2, “Application of anemoside B4 in preparation of a drug for treatment or prevention of psoriasis” (GUANGXI XINHAI PHARMACEUTICAL TECHNOLOGY CO., LTD., priority 2021, dated 2024).

SMILES strings stand for the structures.

Experiment [1] deals with 5% imiquimod-induced psoriatic lesions. Nature of the experiment: Psoriatic lesions and PASI, 5% imiquimod-induced psoriasis model in rats (second animal group). It counts as in vivo, SD male rats. The note with it: 7 days; for erythema and skin lesions of the rats: compared to model control group; for PASI: compared with model control group. As for the experimental part:
(§1) 60 SPF-grade SD male rats in the second animal group are divided into 6 groups: a blank control group, a model control group, an anemoside B4 intragastric administration group (5 mg/kg), an anemoside B4 intragastric administration group (10 mg/kg), an anemoside B4 intragastric administration group (20 mg/kg), and an acitretin intragastric administration group (5 mg/kg), and are respectively expressed into the blank control group, the model group, anemoside B4 5 mg/kg, anemoside B4 10 mg/kg, anemoside B4 20 mg/kg, and acitretin 5 mg/kg in FIGS. 3, 4 and 5 for convenience. A shaving area on the back of the rats in each group is 2.5 cm×3 cm, and the vellus is removed with mild depilatory cream. The rats of each group except the blank control group are modeled by administrating 62.5 mg 5% imiquimod cream on the shaving area until the skin is thickened and has erythema and silver scales for modeling completely.
(§2) 5% imiquimod cream is administrated once a day, and continuously administrated for 8 days for model establishment. On the second day, the rats in each group are continuously intragastric (i.g.) administered drugs for 7 days.
The psoriasis area and severity index (PASI) of the mice in the first animal group and the rats in the second animal group is performed by taking photographs of the shaving area, giving 0-4 scores for the degree of erythema, scales and infiltration thickness in the skin lesions according to a PASI standard, and obtaining the total scores by summing the scores of the three parts; wherein the PASI standard is as follows: none 0, mild 1, moderate 2, severe 3, and extremely severe 4.

The nature of experiment [2]: Weights of mice, 5% imiquimod-induced psoriasis model (first animal group). Type of experiment: in vivo, BALB/c male mice. The note with it: for weights of the mice / weight loss of the mice caused by psoriasis: 12 days; for weights of the mice: compared with blank control group; for weight loss of the mice caused by psoriasis: compared with model control group. How it is done: A shaving area on the back of the mice in each group is 2.5 cm×3 cm, and the vellus is removed with mild depilatory cream. The mice of each group except the blank control group are modeled by administrating 62.5 mg 5% imiquimod cream on the shaving area until the skin is thickened and has erythema and silver scales for modeling completely. During the model establishment, 5% imiquimod cream is administrated once a day, and continuously administrated for 14 days. On the third day, the model establishment is continued and drugs are administered at the same time, wherein the mice in the AC intragastric administration group (8 mg/kg), the anemoside B4 intragastric (i.g.) administration group (5 mg/kg), the anemoside B4 intragastric administration group (10 mg/kg), and the anemoside B4 intragastric administration group (20 mg/kg) are administrated once a day, and continuously administrated for 12 days. […] The mice in the blank control group and the model control group are applied 62.5 mg Vaseline to the skin lesions once a day, and continuously applied for 12 days. The weight of the mice is recorded for counting the weight change of the mice.

The subject of another experiment is VEGF. Nature of the experiment: VEGF level in serum by ELISA, psoriasis model rats. It counts as in vivo, SD male rats. The following applies: 7 days, vs model control group. How it is done: as §1, §2
After administration, blood is taken from abdominal aorta of the rats in each group of the second animal group, centrifuged to collect the serum, and measured the M-CSF, VEGF, IL-6 and IL-17 level in the serum by ELISA kits according to the procedures of specification.

The mark [3] stands for this setting: intragastric 5 mg/kg once a day.
The mark [4] stands for this setting: intragastric 10 mg/kg once a day.
Setting [5] is: intragastric 20 mg/kg once a day.

With `C=C(C)[C@@H]1CC[C@]2(C(=O)O[C@@H]3O[C@H](CO[C@@H]4O[C@H](CO)[C@@H](O[C@@H]5O[C@@H](C)[C@H](O)[C@@H](O)[C@H]5O)[C@H](O)[C@H]4O)[C@@H](O)[C@H](O)[C@H]3O)CC[C@]3(C)[C@H](CC[C@@H]4[C@@]5(C)CC[C@H](O[C@@H]6OC[C@H](O)[C@H](O)[C@H]6O[C@@H]6O[C@@H](C)[C@H](O)[C@@H](O)[C@H]6O)[C@@](C)(CO)[C@@H]5CC[C@]43C)[C@H]12` [anemoside B4], the “erythema and skin lesions of the rats” value in experiment [1] (intragastric 5 mg/kg), in experiment [1] (intragastric 10 mg/kg) and in experiment [1] (intragastric 20 mg/kg) was “lightened” each time. Further, the PASI entry in experiment [1] (intragastric 10 mg/kg) and in experiment [1] (intragastric 20 mg/kg) was “significantly decreased” throughout. In addition, in experiment [2] (anemoside B4 groups, doses not specified), the “reversal of weight loss caused by imiquimod, compared with the acitretin capsules (AC) intragastric administration group” value is listed as “better”. For the same compound, the “weights of the mice” value in experiment [2] (setting [3]), in experiment [2] (setting [4]) and in experiment [2] (setting [5]) was “significantly decreased” each time. For the same compound, the “weight loss of the mice caused by psoriasis” value in experiment [2] (setting [3]), in experiment [2] (setting [4]) and in experiment [2] (setting [5]) was “can be improved” throughout. The “VEGF level in serum” value in the experiment with VEGF (intragastric 5 mg/kg), in the experiment with VEGF (intragastric 10 mg/kg) and in the experiment on VEGF (intragastric 20 mg/kg) was “significantly decreased” throughout.
